From the NIST ThermoML archive (doi:10.1016/j.fluid.2006.06.005)
Numbers after ± are expanded uncertainties.

Conditions: 323.15 K; Liquid

CC(=O)O [acetic acid]
vapor or sublimation pressure: 7.72 ± 0.28 kPa

CO [methanol]
vapor or sublimation pressure: 55.61 ± 0.52 kPa

COC(C)=O [methyl ethanoate]
vapor or sublimation pressure: 79.21 ± 0.71 kPa

O [water]
vapor or sublimation pressure: 12.35 ± 0.17 kPa
